Reference: the NIST ThermoML archive (doi:10.1016/j.tca.2011.01.001)
± gives the expanded uncertainty stated by the source.

Experiments:
[1] = Molar enthalpy of transition or fusion; settings: Crystal; DSC

O=C(O)c1c(O)cccc1O [2,6-dihydroxybenzoic acid]
Settings	Molar enthalpy of transition or fusion [kcal/mol]
[1]	5.98 ± 0.478

Settings	vapor or sublimation pressure [kPa]
346 K, Crystal, Torsion effusion method	9.9e-05 ± 5e-06
347 K, Crystal, Torsion effusion method	0.000113 ± 6e-06
351.5 K, Crystal, Torsion effusion method	0.00017 ± 9e-06
353.3 K, Crystal, Torsion effusion method	0.000216 ± 1.1e-05
354 K, Crystal, Torsion effusion method	0.000223 ± 1.1e-05
355 K, Crystal, Torsion effusion method	0.000248 ± 1.2e-05
357 K, Crystal, Torsion effusion method	0.000307 ± 1.5e-05
358 K, Crystal, Torsion effusion method	0.000341 ± 1.7e-05
360.5 K, Crystal, Torsion effusion method	0.000443 ± 2.2e-05
361 K, Crystal, Torsion effusion method	0.000467 ± 2.4e-05
361.5 K, Crystal, Torsion effusion method	0.000492 ± 2.5e-05
363 K, Crystal, Torsion effusion method	0.000574 ± 2.9e-05
363.5 K, Crystal, Torsion effusion method	0.000604 ± 3e-05
365 K, Crystal, Torsion effusion method	0.000704 ± 3.5e-05
366 K, Crystal, Torsion effusion method	0.000779 ± 3.9e-05
367 K, Crystal, Torsion effusion method	0.000851 ± 4.3e-05
367.5 K, Crystal, Torsion effusion method	0.0009 ± 4.5e-05
369 K, Crystal, Torsion effusion method	0.001031 ± 5.2e-05
454.2 K, Liquid, Non-isothermal TG	0.643 ± 0.14
454.7 K, Liquid, Non-isothermal TG	0.681 ± 0.14
455.7 K, Liquid, Non-isothermal TG	0.722 ± 0.15
456.7 K, Liquid, Non-isothermal TG	0.754 ± 0.16
457.7 K, Liquid, Non-isothermal TG	0.804 ± 0.17
458.7 K, Liquid, Isothermal TG	0.809 ± 0.17
458.7 K, Liquid, Non-isothermal TG	0.853 ± 0.18
459.1 K, Liquid, Isothermal TG	0.829 ± 0.17
459.2 K, Liquid, Isothermal TG	0.848 ± 0.17
459.7 K, Liquid, Non-isothermal TG	0.904 ± 0.19
459.8 K, Liquid, Isothermal TG	0.868 ± 0.18
460.2 K, Liquid, Isothermal TG	0.887 ± 0.18
460.6 K, Liquid, Isothermal TG	0.907 ± 0.19
460.7 K, Liquid, Isothermal TG	0.928 ± 0.19
460.8 K, Liquid, Non-isothermal TG	0.954 ± 0.2
461 K, Liquid, Isothermal TG	0.928 ± 0.19
461.5 K, Liquid, Isothermal TG	0.948 ± 0.2
461.8 K, Liquid, Non-isothermal TG	1.006 ± 0.21
461.9 K, Liquid, Isothermal TG	0.968 ± 0.2
462 K, Liquid, Isothermal TG	0.979 ± 0.2
462.7 K, Liquid, Isothermal TG	1 ± 0.21
462.7 K, Liquid, Non-isothermal TG	1.056 ± 0.21
463.1 K, Liquid, Isothermal TG	1.027 ± 0.21
463.5 K, Liquid, Isothermal TG	1.048 ± 0.21
463.6 K, Liquid, Isothermal TG	1.055 ± 0.22
463.8 K, Liquid, Non-isothermal TG	1.077 ± 0.22
464.3 K, Liquid, Isothermal TG	1.087 ± 0.22
464.7 K, Liquid, Isothermal TG	1.108 ± 0.23
464.8 K, Liquid, Non-isothermal TG	1.121 ± 0.23
465.1 K, Liquid, Isothermal TG	1.113 ± 0.23
465.2 K, Liquid, Isothermal TG	1.14 ± 0.23
465.8 K, Liquid, Non-isothermal TG	1.175 ± 0.24
465.9 K, Liquid, Isothermal TG	1.167 ± 0.24
466.3 K, Liquid, Isothermal TG	1.187 ± 0.24
466.7 K, Liquid, Isothermal TG	1.208 ± 0.25
466.8 K, Liquid, Isothermal TG	1.227 ± 0.25
466.8 K, Liquid, Non-isothermal TG	1.22 ± 0.25
467.5 K, Liquid, Isothermal TG	1.248 ± 0.26
467.8 K, Liquid, Non-isothermal TG	1.313 ± 0.27
467.9 K, Liquid, Isothermal TG	1.267 ± 0.26
468.3 K, Liquid, Isothermal TG	1.288 ± 0.26
468.4 K, Liquid, Isothermal TG	1.307 ± 0.27
468.8 K, Liquid, Non-isothermal TG	1.364 ± 0.28
469.1 K, Liquid, Isothermal TG	1.328 ± 0.27
469.5 K, Liquid, Isothermal TG	1.348 ± 0.28
469.8 K, Liquid, Non-isothermal TG	1.412 ± 0.29
470 K, Liquid, Isothermal TG	1.381 ± 0.28
470.1 K, Liquid, Isothermal TG	1.389 ± 0.28
470.8 K, Liquid, Isothermal TG	1.434 ± 0.29
470.8 K, Liquid, Non-isothermal TG	1.464 ± 0.3
471.2 K, Liquid, Isothermal TG	1.442 ± 0.3
471.6 K, Liquid, Isothermal TG	1.472 ± 0.3
471.7 K, Liquid, Isothermal TG	1.509 ± 0.31
471.7 K, Liquid, Non-isothermal TG	1.51 ± 0.31
472.5 K, Liquid, Isothermal TG	1.546 ± 0.32
472.7 K, Liquid, Non-isothermal TG	1.557 ± 0.32
473.7 K, Liquid, Non-isothermal TG	1.644 ± 0.34
474.8 K, Liquid, Non-isothermal TG	1.761 ± 0.36
475.7 K, Liquid, Non-isothermal TG	1.829 ± 0.38
476.7 K, Liquid, Non-isothermal TG	1.847 ± 0.37

Settings	Normal melting temperature [°C]
Crystal, DTA	170.6 ± 0.5
